For the test, the target named is T1, Dopamine β-hydroxylase (Bos taurus, UniProt P15101).
T1 construct: Dopamine β-hydroxylase was obtained from beef adrenal glands; from tissue; host or cells: beef adrenal glands
T1 sequence (P15101 1-610): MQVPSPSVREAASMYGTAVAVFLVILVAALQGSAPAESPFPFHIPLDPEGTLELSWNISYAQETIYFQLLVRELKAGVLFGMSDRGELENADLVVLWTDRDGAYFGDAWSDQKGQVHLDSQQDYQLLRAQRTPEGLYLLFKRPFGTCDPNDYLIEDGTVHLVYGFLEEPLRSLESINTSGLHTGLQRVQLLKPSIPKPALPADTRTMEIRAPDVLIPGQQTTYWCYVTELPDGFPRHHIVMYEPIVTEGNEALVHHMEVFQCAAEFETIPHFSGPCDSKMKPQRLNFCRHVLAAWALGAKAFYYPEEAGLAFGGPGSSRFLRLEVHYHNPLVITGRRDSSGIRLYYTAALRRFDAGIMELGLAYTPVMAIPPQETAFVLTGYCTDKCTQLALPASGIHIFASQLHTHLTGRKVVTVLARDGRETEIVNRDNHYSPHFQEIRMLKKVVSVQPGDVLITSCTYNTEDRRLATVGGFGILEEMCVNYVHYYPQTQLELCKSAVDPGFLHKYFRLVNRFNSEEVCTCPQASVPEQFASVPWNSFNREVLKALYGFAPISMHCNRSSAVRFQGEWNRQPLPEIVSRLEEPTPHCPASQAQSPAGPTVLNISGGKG
As to the kind of experiment: Dopamine β-Hydroxylase Inhibition Assay. In kind it is biochemical. The conditions noted are these: 5 mM tyramine, pH 5.5, 37° C., 10 minutes; enzyme from beef adrenal glands; read-out: I50 (inhibition median) (converted). Here is the method:
Dopamine β-hydroxylase was obtained from beef adrenal glands. Minced adrenals were homogenized with 0.025M potassium phosphate buffer (pH--6.4) and centrifuged. The supernatant was adjusted to a final concentration of 1% Triton X-100 (Calbiochem. Inc.) by the addition of one-fourth volume of a 5% Triton X-100 solution and stirred at room temperature for 30 minutes. The Triton X-100 treated supernatant was centrifuged, and fractionated with a 66% aqueous ammonium sulfate solution. The resulting precipitate was homogenized in 0.025M potassium phosphate buffer (pH=6.4) and dialyzed. The dialysate was applied to a DE-52 Cellulose Column (Whatman Co.), pre-equilibrated with 0.005M potassium phosphate buffer (pH=6.4), and preloaded with about 2 cm of acid-washed activated carbon, located directly above the cellulose resin. […]
The assay for the dopamine β-hydroxylase inhibition was carried out in a 1 ml incubation mixture containing 5 mM tyramine (freashly prepared), 1.5 mM ascorbic acid (prepared monthly), 0.4 mM sodium fumarate, 0.045 mM pargyline, catalase ([…] per ml, 500 units) and 0.065M sodium acetate buffer, pH 5.5. […] The optical absorbance of the organic phase was measured at 280 nm. […]

In the case of `Cc1nc(O)c(O)c(CO)c1O` [Compound I], the IC50 was approximately 158 nM.
As for `Cc1nc(O)c(O)cc1O` [Compound II], the figure is approximately 262 nM.

Source of the values: patent publication US4487761A, “Dopamine β-hydroxylase inhibitors” (Merck & Co., Inc., priority 1982, dated 1984).
